Assay results reported in US20060079696A1, “Substituted compounds derived from N-(benzyl)phenylacetamide, preparation and uses” (GENFIT, priority 2004, published 2006).

Columns and labels:
[1] = target: T1, hPPARα (Homo sapiens, UniProt Q07869); assay: Gal4-hPPARα chimera transactivation in COS-7 cells (luciferase); format: cell-based; settings: induction factor standardised to an internal reference, read-out: % hGal4-PPAR transactivation (10 μM) alpha
T1 construct: fragments of DNA amplified by PCR corresponding to the DEF domains of the human PPARα, PPARγ PPARδ nuclear receptors; expressed in transfected cells; host or cells: COS-7 (monkey kidney fibroblast line)
T1 sequence (Q07869 239-466 limits assumed): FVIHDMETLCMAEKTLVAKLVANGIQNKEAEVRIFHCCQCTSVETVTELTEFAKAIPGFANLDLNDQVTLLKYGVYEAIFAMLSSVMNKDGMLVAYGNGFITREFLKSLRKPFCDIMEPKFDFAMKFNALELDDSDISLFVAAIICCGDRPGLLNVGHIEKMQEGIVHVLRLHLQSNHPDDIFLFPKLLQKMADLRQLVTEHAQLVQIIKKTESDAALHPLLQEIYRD
Outline: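 COS-7 cells transiently transfected with Gal4-DBD/human PPAR DEF-domain chimeras plus Gal4(RE)_TkpGL3 luciferase reporter (1/10 ratio), then exposed 24 h serum-free to compound at 10 μM. Luciferase induction factor over control, normalised to an internal reference per isoform, expressed as percent activation.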

[2] = test system: Male Sprague-Dawley rats; assay: Glycemia and insulinemia after oral administration in fasted rats; format: in vivo, rat; settings: oral, fasted rat
Description: In normal animals (as in man), the consequence of the administration of insulinotropic compounds is a significant increase in the plasmatic level of insulin. This induced hyperinsulinemia induces a reduction in glycemia. This example studies the evolution of glycemia and of insulinemia following oral administration of the inventive compounds in rats: the insulinotropic action of the compounds in vivo should induce a significant decrease of glycemia.
Male Sprague-Dawley rats (300-320 g) (CERJ—Le Genest St Isle-France) were used in order to carry out this experiment. The rats were fed with a standard diet of granular material; they had free access to food and drink and were kept in individual, ventilated cages in a 12 hr/12 hr light/dark rhythm. The animals were deprived of food for 16 hours prior to the experiment.
The compound was suspended in an aqueous carboxymethylcellulose solution (Sigma C4888) at 1% containing 0.1% Tween80 (Sigma P8074). The animals of the control group received the vehicle alone. The treated animals received a single administration of the compound (the suspension was administered by gavage at the rate of 10 ml/kg). Each group was made up of 11 animals. A 1st blood sample was taken by puncturing the retro-orbital sinus of the animals under volatile isoflurane anaesthesia: this sample makes up the initial time of the experiment. The substance or the vehicle were immediately administered to the animals by gavage, and blood samples were taken over time.
The animals' glycemia was measured in real time using a glucometer (Glucotrend2-Roche Diagnostic-France). The insulinemias were measured using an ELISA kit (Insulin Elisa Kit—Crystal Chem. USA). The method used was of the ELISA type: plasmatic insulin was specifically bound to anti-insulin monoclonal antibodies immobilised on the microtitration plate; simultaneously, an anti-insulin polyclonal guinea pig antibody was added to the reaction. The revelation of the reaction was guaranteed by an antibody coupled to peroxidase. These antibodies bind specifically to the guinea pig's immunoglobulins. The production of oxidised chromogen causes an increase in absorbance in proportion to the quantity of insulin present in the sample.

[3] = test system: Male Dunkin Hartley guinea pigs; assay: Lipid-lowering effect in guinea pigs on a cholesterol and fat enriched diet; format: in vivo, guinea pig; settings: 200 mpk for 14 days; high fat diet
Method: The lipid-lowering effect of the inventive compounds was evaluated in vivo in Hartley guinea pigs. In guinea pigs, as in man, a diet enriched in cholesterol and fatty acids induces an increase in the plasmatic levels of lipids. Plasmatic lipid levels (cholesterol and triglycerides) after 14 days treatment were measured and compared to the levels observed for non-treated animals (controls).
Male Dunkin Hartley guinea pigs (Harlan, Gannat, France) aged 5-6 weeks at the start of the experiment were put in groups of 6 animals selected such that the distribution of their body weight and of their plasmatic lipid levels determined before the experiment were uniform. The guinea pigs were given a diet containing 0.2% cholesterol and 14% fats (Research Diets Inc.-USA). They were kept in a 12 hour/12 hour light/dark cycle at a constant temperature of 20±3° C. and had free access to water and food. The amount of food eaten and the increase in weight were recorded. The compounds tested were suspended in an aqueous carboxymethylcellulose solution (Sigma C4888) at 1% containing 0.1% Tween80 (Sigma P8074) and administered daily by intragastric gavage for 14 days at a dose of 200 mg/kg/day. […]
The plasmatic concentrations of the lipids (total cholesterol and triglycerides) were measured by enzymatic titrations (bioMérieux-Lyon-France) according to the supplier's recommendations.

Question: `CCCCC(NC(=O)Cc1ccc(OC(C)(C)C(=O)NS(C)(=O)=O)cc1)c1ccccc1N1CCCCC1` (centres unmarked) [Compound 52, N-[methylsulfonyl]-2-[4-[1-(1-(2-(1-piperidinyl)phenyl)pentyl)aminocarbonylmethyl]phenoxy]-2-methylpropanamide] was tested. Which activation at 10 µM [1] did it give?
Answer: The activation at 10 µM was 42%.

Question: And the “decrease in glycemia between T=0 and T=120 min” value ([2]; 50 mpk)?
Answer: The value was “no measurable effect”.

Question: What about the “decrease in glycemia between T=0 and T=120 min” value ([2]; 500 mpk) of the same molecule?
Answer: Its value is 19%.

Question: And the “Cholesterol plasmatic levels, lower than controls” value [3]?
Answer: The value was “approximately 45%”.

Question: What about the “Triglycerides plasmatic levels, lower than controls” value [3] of the same molecule?
Answer: Its value is “approximately 22%”.
